Results published in US20060106085A1, “Methods and compositions using PDE4 modulators for treatment and management of central nervous system injury” (priority 2004, published 2006).

Key:
[1] = system: TNF-α production from human PBMC; assay: LPS-induced TNF-α production from human PBMC; format: cell-based; settings: LPS 100 ng/ml, compound added 1 hour before LPS, 18-20 hours, ELISA
Experimental: Inhibition of TNF-α production following LPS-stimulation of human PBMC and human whole blood by 3-(3,4-dimethoxy-phenyl)-3-(1-oxo-1,3-dihydro-isoindol-2-yl)-propionamide is investigated in vitro (Muller et al., Bioorg. Med. Chem. Lett. 9:1625-1630, 1999). The IC50's of 3-(3,4-dimethoxy-phenyl)-3-(1-oxo-1,3-dihydro-isoindol-2-yl)-propionamide for inhibiting production of TNF-α following LPS-stimulation of PBMC and human whole blood is measured.
For example, 3-(3,4-dimethoxy-phenyl)-3-(1-oxo-1,3-dihydro-isoindol-2-yl)-propionamide was tested for the ability to inhibit LPS-induced TNF-α production from human PBMC as previously described (Muller et al. 1996, J. Med. Chem. 39:3238). PBMC from normal donors were obtained by Ficoll Hypaque (Pharmacia, Piscataway, N.J., USA) density centrifugation. Cells were cultured in RPMI (Life Technologies, Grand Island, N.Y., USA) supplemented with 10% AB±human serum (Gemini Bio-products, Woodland, Calif., USA), 2 mM L-glutamine, 100 U/ml penicillin, and 100 μg/ml streptomycin (Life Technologies).
PBMC (2×10^5 cells) were plated in 96-well flat-bottom Costar tissue culture plates (Corning, N.Y., USA) in triplicate. Cells were stimulated with LPS (Sigma, St. Louis, Mo., USA) at 100 ng/ml in the absence or presence of compounds. […]

[2] = system: TNF-α production from human PBMC; assay: IL-1β-induced TNF-α production from human PBMC; format: cell-based; settings: 50 ng/ml recombinant human IL-1β, 18 hours
Experimental: During the course of inflammatory diseases, TNF-α production is often stimulated by the cytokine 1L-1β rather than by bacterially derived LPS. 3-(3,4-Dimethoxy-phenyl)-3-(1-oxo-1,3-dihydro-isoindol-2-yl)-propionamide was tested for the ability to inhibit IL-1β-induced TNF-α production from human PBMC as described above for LPS-induced TNF-α production, except that the PBMC are isolated from source leukocyte units (Sera-Tec Biologicals, North Brunswick, N.J., USA) by centrifugation on Ficoll-Paque Plus (Amersham Pharmacia, Piscataway, N.J., USA), plated in 96-well tissue culture plates at 3×10^5 cells/well in RPMI-1640 medium (BioWhittaker, Walkersville, Md., USA) containing 10% heat-inactivated fetal bovine serum (Hyclone), 2 mM L-glutamine, 100 U/ml penicillin, and […] (complete medium), pretreated with compounds at 10, 2, 0.4, 0.08, 0.016, 0.0032, 0.00064, and 0 μM in duplicate at a final DMSO concentration of 0.1% at 37° C. in a humidified incubator at 5% CO2 for 1 hour, then stimulated with 50 ng/ml recombinant human IL-1β (Endogen) for 18 hours.

PDE4 = assay: Inhibition of PDE4 enzyme purified from U937 human monocytic cells; format: biochemical; settings: 1 μM cAMP, 30 min at 30° C.
Experimental: PDE4 enzyme was purified from U937 human monocytic cells by gel filtration chromatography as previously described (Muller et al. 1998, Bioorg. & Med Chem Lett 8:2669-2674). Phosphodiesterase reactions were carried out in 50 mM Tris HCl pH 7.5, 5 mM MgCl2, 1 μM cAMP, 10 nM [^311)-cAMP for 30 min at 30° C., terminated by boiling, treated with 1 mg/ml snake venom, and separated using AG-1×S ion exchange resin (BioRad) as described (Muller et al. 1998, Bioorg. & Med Chem Lett 8:2669-2674). Reactions consumed less than 15% of available substrate.

[3] = Cardiovascular and respiratory function in anesthetized dogs; format: in vivo; settings: anesthetized Beagle dogs, 400, 800, and 1,200 mg/kg/day ascending doses, infusion through the jugular vein, compared to vehicle control
Experimental: The effects of 3-(3,4-dimethoxy-phenyl)-3-(1-oxo-1,3-dihydro-isoindol-2-yl)-propionamide on cardiovascular and respiratory function are investigated in anesthetized dogs. Two groups of Beagle dogs (2/sex/group) are used. One group receives three doses of vehicle only and the other receives three ascending doses of 3-(3,4-dimethoxy-phenyl)-3-(1-oxo-1,3-dihydro-isoindol-2-yl)-propionamide (400, 800, and 1,200 mg/kg/day). In all cases, doses of 3-(3,4-dimethoxy-phenyl)-3-(1-oxo-1,3-dihydro-isoindol-2-yl)-propionamide or vehicle are successively administered via infusion through the jugular vein separated by intervals of at least 30 minutes.

spinal cord contusion = settings: cited from earlier work

| IC50 (PDE4) [µM] | Compound | IC50 [1] [µM] | IC50 [2] [µM] | cardiovascular and respiratory changes [3] | locomotion (spinal cord contusion; combination of rolipram with db-cAMP) | axon sparing and myelination (spinal cord contusion; combined with Schwann cell grafts) | cAMP levels after spinal cord contusion (spinal cord contusion; rolipram alone) |
| --- | --- | --- | --- | --- | --- | --- | --- |
| 15 | COc1ccc(C(CC(N)=O)N2Cc3ccccc3C2=O)cc1OC (stereo not shown) [3-(3,4-dimethoxy-phenyl)-3-(1-oxo-1,3-dihydro-isoindol-2-yl)-propionamide] | 21 | 16 | minimal at all doses | – | – | – |
| – | COc1ccc(C2CNC(=O)C2)cc1OC1CCCC1 (stereo not shown) [rolipram] | – | – | – | improved locomotion | promoted significant supraspinal and proprioceptive axon sparing and myelination | prevented the decrease of cAMP levels |
